The structures appear in SMILES notation.

Four compounds from article PMC12507022, “Widespread distribution of BpfA-mediated bisphenol F degradation among members of the Pseudomonadota and Actinomycetota” (The ISME Journal, 2025) can be followed below.

The test system of one assay is T1, FBO.
T1 construct: synthetic gene, expressed and purified like BpfA (E. coli, Ni-NTA)
The assay can be described thus: HPLC, Michaelis-Menten fit. Type of assay: biochemical, Sphingobium sp. W15. The note with it: 20 mM Tris-HCl pH 8.0, 30 °C, 0.2 mM FAD added.

For another assay, the system named is T2, BpfA.
T2 construct: recombinant from pET29a(+) (NdeI/XhoI) in E. coli BL21(DE3), Ni-NTA purified; contains flavin
The assay can be described thus: HPLC, Michaelis-Menten fit. The class given is biochemical, Microbacterium sp. F2. The note with it: 20 mM Tris-HCl pH 8.0, 30 °C, O2 as electron acceptor.

The Km is the substrate concentration at which the rate is half of its maximum. Turning to `CCCc1ccc(O)c(OC)c1` [4PG], the Km in the assay on FBO was 170 ± 5.9 µM; in the assay with BpfA, 25.4 ± 2.9 µM. Turning to `COc1cc(CO)ccc1O` [VA], the Km with FBO was found to be 183 ± 9.3 µM; in the assay on BpfA, 266 ± 10.3 µM.

On to `COCc1ccc(O)cc1` [4MOP], for which the Km in the assay on BpfA turned out to be 297 ± 5 µM. For the compound `Oc1ccc(Cc2ccc(O)cc2)cc1` [BPF], the results for the Km in the assay on FBO and in the assay on BpfA were 167 ± 12.8 µM and 12.4 ± 1.9 µM, respectively.
